We go through nine compounds from US5206229A, “Vitamin D analogues” (Leo Pharmaceutical Products LTD, priority 1988, dated 1993).

One series has as its system interleukins. The following applies: cited from earlier work.
The test system of a further series is differentiation of cells. Particulars: cited from earlier work.
The subject of series [1] is cell proliferation. The following applies: cited from earlier work.
The conditions of series [2]: in vivo; cited from earlier work.
The test system of the next series is rat intestinal receptor. Particulars: compared with 1,25(OH)2 D3; cited from earlier work.
Series [3] deals with chicken intestinal receptor. The following applies: compared with 1,25(OH)2 D3; cited from earlier work.
Series [4] concerns receptor in a human myeloid leukemia cell line (HL-60). Particulars: compared with 1,25(OH)2 D3; cited from earlier work.
For the next series, the system named is HL-60 cells. Particulars: in vitro; more potent than 1,25(OH)2 D3; cited from earlier work.
The conditions of series [5]: in vivo; compared with 1,25(OH)2 D3; cited from earlier work.
The conditions of series [6]: in vivo; cited from earlier work. The source holds these as a separate data set.
In series [7] the test system is cell differentiation. The following applies: more potent than 1,25(OH)2 D3; cited from earlier work.
The subject of series [8] is human monocytic tumour cell line. Description: induction of cell differentiation in a human monocytic tumour cell line. The format is cell-based. The following applies: compared with 1,25(OH)2 D3.
The test system is the same in series [9]. As to the kind of experiment: inhibition of proliferation of tumour cells. It is filed as cell-based. Particulars: compared with 1,25(OH)2 D3.
Series [10] is described as follows: calcium metabolism in rats (hypercalciuria, hypercalcemia).
Series [11] concerns cell differentiation. The following applies: cited from earlier work.
Series [12] relates to cell proliferation. The following applies: cited from earlier work. This is another data set of the same source.
For series [13] the following is noted: cited from earlier work.
The test system of series [14] is intestinal vitamin D receptor. Particulars: in vitro; compared with 1,25(OH)2 D3; cited from earlier work.

Turning to `C=C1/C(=C\C=C2/CCC[C@]3(C)[C@@H]([C@H](C)CCCC(C)(C)O)CC[C@@H]23)C[C@@H](O)C[C@@H]1O` [1,25(OH)2 D3, 1α,25-dihydroxy-vitamin D3], the effect on interleukins entry in the series on interleukins was “influences the effects and/or production of interleukins”. Moreover, the “stimulation of differentiation of cells” value with differentiation of cells is “able to stimulate the differentiation of cells”. Moreover, the “inhibition of excessive cell proliferation” value in the series on cell proliferation [1] was “inhibit excessive cell proliferation”. Moreover, the “effect on calcium metabolism” value in series [2] was “well known potent effect”.

`C=C1/C(=C\C=C2/CCC[C@]3(C)[C@@H]([C@H](C)CCCCC(C)(C)O)CC[C@@H]23)C[C@@H](O)C[C@@H]1O` [24-Homo-1,25-dihydroxyvitamin D3]: the “binding affinity to the rat intestinal receptor” value with rat intestinal receptor is “the same binding affinity as 1,25(OH)2 D3”. In [3], the “binding affinity to the chicken intestinal receptor” value is recorded as “the same binding affinity as 1,25(OH)2 D3”. The “binding affinity to the receptor in HL-60” value in [4] is recorded as “the same binding affinity as 1,25(OH)2 D3”. Moreover, the “potency in inducing differentiation of HL-60 cells relative to 1,25(OH)2 D3” value in the series on HL-60 cells was 10 fold. Besides, in series [5], the “potency in calcium metabolism assessments” value is given as “significantly less potent”.

`C=C1/C(=C\C=C2/CCC[C@]3(C)[C@@H]([C@H](C)CCCC(O)(CCC)CCC)CC[C@@H]23)C[C@@H](O)C[C@@H]1O` [26,27-diethyl-1α,25-dihydroxyvitamin D3]: the “vitamin D activity (calcium metabolism effects)” value in series [6] is “almost no vitamin D activity”. The “potency in inducing cell differentiation relative to 1,25(OH)2 D3” value in the series with cell differentiation [7] is 10 fold.

Consider `C=C1/C(=C\C=C2/CCC[C@]3(C)[C@@H]([C@H](C)CCCC(C)(O)CC)CC[C@@H]23)C[C@@H](O)C[C@@H]1O` (some centres unmarked) [26-homo-1,25-dihydroxyvitamin D3], for which the “binding affinity to the rat intestinal receptor” value with rat intestinal receptor is “the same binding affinity as 1,25(OH)2 D3”. In [3], the “binding affinity to the chicken intestinal receptor” value was “the same binding affinity as 1,25(OH)2 D3”. In addition, the “binding affinity to the receptor in HL-60” value in series [4] is “the same binding affinity as 1,25(OH)2 D3”. Besides, the “potency in inducing differentiation of HL-60 cells relative to 1,25(OH)2 D3” value in the series on HL-60 cells is reported as 10 fold. In [5], the “potency in calcium metabolism assessments” value is “more potent”.

Turning to `C=C1/C(=C\C=C2/CCC[C@]3(C)[C@@H]([C@H](C)CCCCCC(C)(C)O)CC[C@@H]23)C[C@@H](O)C[C@@H]1O` [Compound 36, 1(S),3(R)-Dihydroxy-20(R)-(6-hydroxy-6-methyl-1-heptyl)-9,10-secopregna-5(Z),7(E),10(19)-triene], the “concentration needed to induce cell differentiation” value in [8] is “the same low concentrations as 1,25(OH)2 D3”. In series [9], the “concentration effective in inhibiting proliferation” value is reported as “the same low concentrations as 1,25(OH)2 D3”. Besides, in series [10], the “in vivo potency on calcium metabolism” value is “lower in vivo potency”.

As to `C=C1/C(=C\C=C2/CCC[C@]3(C)[C@@H]([C@H](C)CCCCCCC(C)(C)O)CC[C@@H]23)C[C@@H](O)C[C@@H]1O` [Compound 37, 1(S),3(R)-Dihydroxy-20(R)-(7-hydroxy-7-methyl-1-octyl)-9,10-secopregna-5(Z),7(E),10(19)-triene], the “concentration needed to induce cell differentiation” value in series [8] was “the same low concentrations as 1,25(OH)2 D3”. The “concentration effective in inhibiting proliferation” value in [9] is on record as “the same low concentrations as 1,25(OH)2 D3”. Besides, the “in vivo potency on calcium metabolism” value in [10] was “lower in vivo potency”.

Turning to `C=C1/C(=C\C=C2/CCC[C@]3(C)[C@@H]([C@H](C)/C=C/CCCCC(C)(C)O)CC[C@@H]23)C[C@@H](O)C[C@@H]1O` [Compound 38], the “concentration needed to induce cell differentiation” value in [8] is “the same low concentrations as 1,25(OH)2 D3”. For the same compound, in series [9], the “concentration effective in inhibiting proliferation” value is recorded as “the same low concentrations as 1,25(OH)2 D3”. The “in vivo potency on calcium metabolism” value in series [10] is “lower in vivo potency”.

As to `C=C1/C(=C\C=C2/CCC[C@]3(C)[C@@H]([C@H](C)/C=C/CCCC(C)(C)O)CC[C@@H]23)C[C@@H](O)C[C@@H]1O` [Compound 54], in [8], the “concentration needed to induce cell differentiation” value was “the same low concentrations as 1,25(OH)2 D3”. Also, the “concentration effective in inhibiting proliferation” value in series [9] is recorded as “the same low concentrations as 1,25(OH)2 D3”. The “in vivo potency on calcium metabolism” value in [10] is recorded as “lower in vivo potency”.

As to `C=C1/C(=C\C=C2/CCC[C@]3(C)[C@@H]([C@H](C)/C=C/[C@@H](O)C4CC4)CC[C@@H]23)C[C@@H](O)C[C@@H]1O` [MC 903], the “induction of cell differentiation” value with cell differentiation [11] is on record as “potent inducer of cell differentiation”. Moreover, the “inhibition of cell proliferation” value with cell proliferation [12] is listed as “inhibitor of cell proliferation”. Besides, the “activity on calcium metabolism in vivo” value in [13] is listed as “only moderate activity”. Also, the “binding to the intestinal vitamin D receptor” value in [14] is given as “binds equally well as 1,25(OH)2 D3”.
